Reference: PubChem BioAssay AID256 (DTP/NCI, 2004)
Several values for one entry are separate records, joined by “and”; a condition that tells them apart may be missing. Equal entries are not always repeated. Inconclusive results and toxic doses are left out.

Tested on: CD2F1 mice, L1210 leukemia ip, survival T/C
Assay: NCI In Vivo Anticancer Drug Screen. Data for tumor model L1210 Leukemia (intraperitoneal) in CD2F1 (CDF1) mice
Conditions: higher = longer survival
In short: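 Activity against a transplanted murine tumor was judged by comparing the compound group with a vehicle group. The outcome in the treated animals was divided by that in the controls.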

[1] = endpoint: mean survival time, dose: 10.0 mg/kg/injection, schedule: Q01DX009 (ip), vehicle: saline
[2] = endpoint: mean survival time, dose: 20.0 mg/kg/injection, schedule: Q01DX005 (ip), vehicle: saline
[3] = endpoint: mean survival time, dose: 20.0 mg/kg/injection, schedule: Q04DX003 (ip), vehicle: saline
[4] = endpoint: mean survival time, dose: 40.0 mg/kg/injection, schedule: Q01DX005 (ip), vehicle: saline
[5] = endpoint: mean survival time, dose: 80.0 mg/kg/injection, schedule: Q01DX005 (ip), vehicle: saline
[6] = endpoint: mean survival time, dose: 100.0 mg/kg/injection, schedule: Q01DX001 (ip), vehicle: saline
[7] = endpoint: mean survival time, dose: 25.0 mg/kg/injection, schedule: Q01DX009 (ip), vehicle: saline with Tween-80
[8] = endpoint: mean survival time, dose: 50.0 mg/kg/injection, schedule: Q01DX009 (ip), vehicle: saline with Tween-80
[9] = endpoint: mean survival time, dose: 100.0 mg/kg/injection, schedule: Q04DX003 (ip), vehicle: saline with Tween-80

For CSc1ncnc2c1ncn2C1OC(CO)C(O)C1O (stereo not given), the T/C (endpoint: mean survival time, dose: 4.0 mg/kg/injection, schedule: Q01DX009 (ip), vehicle: saline) was 118 % of control, the T/C (endpoint: mean survival time, dose: 5.0 mg/kg/injection, schedule: Q01DX005 (ip), vehicle: saline) was 118 % of control and 124 % of control and the T/C (endpoint: mean survival time, dose: 5.0 mg/kg/injection, schedule: Q01DX007 (ip), vehicle: saline) was 110 % of control. For the same molecule, the T/C (endpoint: mean survival time, dose: 5.0 mg/kg/injection, schedule: Q01DX009 (ip), vehicle: saline) was 114 % of control, the T/C (endpoint: mean survival time, dose: 5.0 mg/kg/injection, schedule: Q03DX003 (ip), vehicle: saline) was 115 % of control and the T/C (endpoint: mean survival time, dose: 5.0 mg/kg/injection, schedule: Q04DX003 (ip), vehicle: saline) was 103 % of control. The T/C (endpoint: mean survival time, dose: 10.0 mg/kg/injection, schedule: Q01DX007 (ip), vehicle: saline) was 116 % of control, the T/C [1] was 121 % of control and the T/C (endpoint: mean survival time, dose: 10.0 mg/kg/injection, schedule: Q03DX003 (ip), vehicle: saline) was 122 % of control. The T/C (endpoint: mean survival time, dose: 10.0 mg/kg/injection, schedule: Q04DX003 (ip), vehicle: saline) was 112 % of control, the T/C (endpoint: mean survival time, dose: 12.5 mg/kg/injection, schedule: Q01DX009 (ip), vehicle: saline) was 150 % of control and the T/C [2] was 154 % of control. For the same molecule, the T/C [3] was 114 % of control, the T/C (endpoint: mean survival time, dose: 25.0 mg/kg/injection, schedule: Q01DX001 (ip), vehicle: saline) was 118 % of control and the T/C (endpoint: mean survival time, dose: 32.0 mg/kg/injection, schedule: Q01DX009 (ip), vehicle: saline) was 115 % of control. The T/C [4] was 164 % of control and 166 % of control, the T/C (endpoint: mean survival time, dose: 64.0 mg/kg/injection, schedule: Q01DX009 (ip), vehicle: saline) was 80 % of control and the T/C [5] was 119 % of control. For the same molecule, the T/C (endpoint: median survival time, dose: 18.0 mg/kg/injection, schedule: Q01DX009 (ip), vehicle: saline) was 155 % of control, the T/C (endpoint: median survival time, dose: 27.0 mg/kg/injection, schedule: Q01DX009 (ip), vehicle: saline) was 170 % of control and 191 % of control and the T/C (endpoint: median survival time, dose: 30.0 mg/kg/injection, schedule: Q01DX009 (ip), vehicle: saline) was 158 % of control and 161 % of control. The T/C (endpoint: median survival time, dose: 35.0 mg/kg/injection, schedule: Q01DX009 (ip), vehicle: saline) was 183 % of control, the T/C (endpoint: median survival time, dose: 45.0 mg/kg/injection, schedule: Q01DX009 (ip), vehicle: saline) was 119 % of control and 108 % of control and the T/C (endpoint: median survival time, dose: 123.0 mg/kg/injection, schedule: Q01DX001 (ip), vehicle: saline) was 157 % of control. The T/C (endpoint: median survival time, dose: 185.0 mg/kg/injection, schedule: Q01DX001 (ip), vehicle: saline with Tween-80) was 160 % of control and the T/C (endpoint: median survival time, dose: 185.0 mg/kg/injection, schedule: Q01DX001 (ip), vehicle: saline) was 151 % of control.

With CSc1nc2cc(S(=O)(=O)O)ccc2s1 the T/C (endpoint: mean survival time, dose: 100.0 mg/kg/injection, schedule: Q04DX003 (ip), vehicle: saline sonified) was 103 % of control, the T/C (endpoint: mean survival time, dose: 200.0 mg/kg/injection, schedule: Q04DX003 (ip), vehicle: saline sonified) was 97 % of control and the T/C (endpoint: mean survival time, dose: 400.0 mg/kg/injection, schedule: Q04DX003 (ip), vehicle: saline sonified) was 89 % of control.

For C=Cc1cc(OC)c2c(c1)c(=O)oc1c2cc(OC)c2c(O)ccc(C3OC(C(C)O)C(O)C3O)c21 (stereo not given), the T/C (endpoint: median survival time, dose: 25.0 mg/kg/injection, schedule: Q01DX009 (ip), vehicle: Klucel (hydroxypropylcellulose) (HPC)) was 112 % of control, the T/C (endpoint: median survival time, dose: 36.0 mg/kg/injection, schedule: Q01DX009 (ip), vehicle: Klucel (hydroxypropylcellulose) (HPC)) was 118 % of control and the T/C (endpoint: median survival time, dose: 50.0 mg/kg/injection, schedule: Q01DX009 (ip), vehicle: Klucel (hydroxypropylcellulose) (HPC)) was 112 % of control. For the same molecule, the T/C (endpoint: median survival time, dose: 60.0 mg/kg/injection, schedule: Q01DX009 (ip), vehicle: Klucel (hydroxypropylcellulose) (HPC)) was 109 % of control, the T/C (endpoint: median survival time, dose: 100.0 mg/kg/injection, schedule: Q01DX009 (ip), vehicle: Klucel (hydroxypropylcellulose) (HPC)) was 113 % of control and 100 % of control and the T/C (endpoint: median survival time, dose: 166.7 mg/kg/injection, schedule: Q01DX009 (ip), vehicle: Klucel (hydroxypropylcellulose) (HPC)) was 116 % of control. For the same molecule, the T/C (endpoint: median survival time, dose: 277.8 mg/kg/injection, schedule: Q01DX009 (ip), vehicle: Klucel (hydroxypropylcellulose) (HPC)) was 120 % of control and the T/C (endpoint: median survival time, dose: 400.0 mg/kg/injection, schedule: Q01DX009 (ip), vehicle: Klucel (hydroxypropylcellulose) (HPC)) was 111 % of control.

CCOC(=O)c1[nH]c(=S)[nH]c1C(=O)OCC was tested, and the T/C [6] was 100 % of control.

For COc1ccc2c(Nc3ccc(NS(C)(=O)=O)cc3)c3ccccc3nc2c1, the T/C [7] was 100 % of control, the T/C [8] was 86 % of control and the T/C [9] was 120 % of control. The T/C (endpoint: mean survival time, dose: 150.0 mg/kg/injection, schedule: Q04DX003 (ip), vehicle: saline with Tween-80) was 94 % of control.

In the case of CC(C)(CCl)c1ccc(C(C)(C)CCl)cc1, the T/C [9] was 100 % of control, the T/C (endpoint: mean survival time, dose: 200.0 mg/kg/injection, schedule: Q04DX003 (ip), vehicle: saline with Tween-80) was 91 % of control and the T/C (endpoint: mean survival time, dose: 400.0 mg/kg/injection, schedule: Q04DX003 (ip), vehicle: saline with Tween-80) was 100 % of control.

With CS(=O)(=O)OCCCN(CCCOS(C)(=O)=O)CCCN1CCOCC1 the T/C [1] was 197 % of control, the T/C (endpoint: mean survival time, dose: 12.0 mg/kg/injection, schedule: Q01DX001 (ip), vehicle: saline) was 118 % of control and the T/C (endpoint: mean survival time, dose: 12.5 mg/kg/injection, schedule: Q04DX003 (ip), vehicle: saline) was 122 % of control. For the same molecule, the T/C (endpoint: mean survival time, dose: 20.0 mg/kg/injection, schedule: Q01DX001 (ip), vehicle: saline) was 150 % of control, the T/C [2] was 152 % of control and the T/C (endpoint: mean survival time, dose: 20.0 mg/kg/injection, schedule: Q01DX009 (ip), vehicle: saline) was 230 % of control. For the same molecule, the T/C (endpoint: mean survival time, dose: 20.0 mg/kg/injection, schedule: Q02DX003 (ip), vehicle: saline) was 152 % of control, the T/C [3] was 156 % of control and the T/C (endpoint: mean survival time, dose: 40.0 mg/kg/injection, schedule: Q01DX001 (ip), vehicle: saline) was 200 % of control. For the same molecule, the T/C [4] was 182 % of control, the T/C (endpoint: mean survival time, dose: 40.0 mg/kg/injection, schedule: Q01DX009 (ip), vehicle: saline) was 238 % of control and the T/C (endpoint: mean survival time, dose: 40.0 mg/kg/injection, schedule: Q02DX003 (ip), vehicle: saline) was 166 % of control. For the same molecule, the T/C (endpoint: mean survival time, dose: 50.0 mg/kg/injection, schedule: Q01DX009 (ip), vehicle: saline) was 180 % of control, the T/C (endpoint: mean survival time, dose: 50.0 mg/kg/injection, schedule: Q04DX003 (ip), vehicle: saline) was 122 % of control and the T/C (endpoint: mean survival time, dose: 60.0 mg/kg/injection, schedule: Q01DX001 (ip), vehicle: saline) was 159 % of control. The T/C (endpoint: mean survival time, dose: 60.0 mg/kg/injection, schedule: Q01DX005 (ip), vehicle: saline) was 189 % of control, the T/C (endpoint: mean survival time, dose: 60.0 mg/kg/injection, schedule: Q01DX009 (ip), vehicle: saline) was 230 % of control and the T/C (endpoint: mean survival time, dose: 60.0 mg/kg/injection, schedule: Q02DX003 (ip), vehicle: saline) was 191 % of control. For the same molecule, the T/C (endpoint: mean survival time, dose: 60.0 mg/kg/injection, schedule: Q04DX003 (ip), vehicle: saline) was 190 % of control, the T/C (endpoint: mean survival time, dose: 75.0 mg/kg/injection, schedule: Q04DX003 (ip), vehicle: saline) was 162 % of control and the T/C [5] was 234 % of control. The T/C (endpoint: mean survival time, dose: 80.0 mg/kg/injection, schedule: Q01DX009 (ip), vehicle: saline) was 290 % of control, the T/C (endpoint: mean survival time, dose: 80.0 mg/kg/injection, schedule: Q02DX003 (ip), vehicle: saline) was 189 % of control and the T/C (endpoint: mean survival time, dose: 80.0 mg/kg/injection, schedule: Q04DX003 (ip), vehicle: saline) was 206 % of control. The T/C [6] was 153 % of control and 265 % of control, the T/C (endpoint: mean survival time, dose: 100.0 mg/kg/injection, schedule: Q01DX005 (ip), vehicle: saline) was 281 % of control and the T/C (endpoint: mean survival time, dose: 100.0 mg/kg/injection, schedule: Q01DX009 (ip), vehicle: saline) was 190 % of control and 270 % of control. For the same molecule, the T/C (endpoint: mean survival time, dose: 100.0 mg/kg/injection, schedule: Q02DX003 (ip), vehicle: saline) was 215 % of control, the T/C (endpoint: mean survival time, dose: 100.0 mg/kg/injection, schedule: Q04DX003 (ip), vehicle: saline) was 165 % of control and 236 % of control and the T/C (endpoint: mean survival time, dose: 150.0 mg/kg/injection, schedule: Q04DX003 (ip), vehicle: saline) was 197 % of control. For the same molecule, the T/C (endpoint: mean survival time, dose: 200.0 mg/kg/injection, schedule: Q01DX001 (ip), vehicle: saline) was 234 % of control, the T/C (endpoint: mean survival time, dose: 200.0 mg/kg/injection, schedule: Q01DX009 (ip), vehicle: saline) was 105 % of control and the T/C (endpoint: mean survival time, dose: 200.0 mg/kg/injection, schedule: Q04DX003 (ip), vehicle: saline) was 228 % of control and 297 % of control.

With CCN(C)N=Nc1ccc(NC(N)=O)cc1 the T/C (endpoint: mean survival time, dose: 4.68 mg/kg/injection, schedule: Q01DX009 (ip), vehicle: Klucel (hydroxypropylcellulose) (HPC)) was 109 % of control and 112 % of control, the T/C (endpoint: mean survival time, dose: 9.37 mg/kg/injection, schedule: Q01DX009 (ip), vehicle: Klucel (hydroxypropylcellulose) (HPC)) was 119 % of control and 108 % of control and the T/C (endpoint: mean survival time, dose: 18.75 mg/kg/injection, schedule: Q01DX009 (ip), vehicle: Klucel (hydroxypropylcellulose) (HPC)) was 124 % of control. For the same molecule, the T/C (endpoint: mean survival time, dose: 37.5 mg/kg/injection, schedule: Q01DX009 (ip), vehicle: Klucel (hydroxypropylcellulose) (HPC)) was 152 % of control.

With COP12(OCCO1)SC(C(F)(F)F)=C(C(F)(F)F)S2 the T/C (endpoint: mean survival time, dose: 12.5 mg/kg/injection, schedule: Q01DX009 (ip), vehicle: saline with Tween-80) was 102 % of control and 109 % of control, the T/C [7] was 96 % of control and 101 % of control and the T/C [8] was 100 % of control.
